Reference: US7666582B2, “IdeS, an IgG-degrading enzyme of Streptococcus pyogenes” (Hansa Medical Research AB, priority 2001, dated 2010)
Entries after “also recorded” stand apart in the source; their conditions may differ. Read-outs that look alike come from different tables or passages of the source. * marks the point of attachment. code Z = not defined here; CHN2 = [N-]=[N+]=C*

Tests used:
IdeS [1] = assay: Proteinase inhibition assay (IgG cleavage by IdeS, SDS-PAGE); type: biochemical, S. pyogenes; settings: 30 min preincubation, IdeS 0.3 μg/ml
Method: Partially purified IdeS (0.3 μg/ml) was incubated with either 20 nM iodoacetic acid, Z-LVG-CHN2 (Björck et al., 1989) at 0.4 mg/ml in 1% DMSO, or E64 (40 μM). The tubes were kept in the dark and incubated for 30 min at room temperature. As controls, IdeS was also kept in phosphate buffered saline (PBS) or in 1% DMSO, the solvent for Z-LVG-CHN2. After 30 min, 5 μl of 10 mg/ml IgG (Sigma) were added, and the volume was adjusted to 100 μl with PBS. Incubation was continued for 60 min at 37° C. The reaction was stopped by the addition of SDS-PAGE sample buffer and samples were analyzed by 12% SDS-PAGE.

IdeS [2] = assay: Inhibition of IdeS activity by IgG-binding streptococcal proteins; type: biochemical, S. pyogenes
S. pyogenes [3] = settings: in vivo; cited from earlier work
S. pyogenes [4] = settings: in vitro; cited from earlier work
SpeB = SpeB (Streptococcus pyogenes, UniProt P0C0J0); settings: cited from earlier work
[5] = system: IgG-cleaving activity of S. pyogenes strain AP1 growth medium; assay: Cleavage of IgG in AP1 growth medium with E64 added; type: biochemical; settings: E64 added to the AP1 growth medium, TH medium with 10% human plasma
papain = target: T1, papain (Carica papaya, UniProt P00784); settings: cited from earlier work
T1 sequence (P00784 134-345): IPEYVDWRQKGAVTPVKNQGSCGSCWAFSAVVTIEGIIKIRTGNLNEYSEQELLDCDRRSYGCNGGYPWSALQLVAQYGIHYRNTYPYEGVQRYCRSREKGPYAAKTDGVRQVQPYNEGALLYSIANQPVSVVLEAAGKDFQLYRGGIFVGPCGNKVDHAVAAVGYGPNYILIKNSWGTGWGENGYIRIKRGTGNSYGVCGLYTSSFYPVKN

Row | Molecule | inhibition of streptococcal growth (S. pyogenes [3]) | inhibition of streptococcal growth (S. pyogenes [4]) | inhibition of the proteolytic activity of SpeB (SpeB) | also measured
1 | O=C(O)CI [iodoacetic acid] |  |  |  | inhibition of the activity of IdeS (IgG cleavage) (IdeS [1]; 20 nM iodoacetic acid): efficiently inhibited the activity of IdeS
2 | protein G: streptococcal protein that binds the Cγ2-Cγ3 interphase region of IgG |  |  |  | inhibition of IdeS activity (IdeS [2]): cannot inhibit IdeS activity
3 | CC(C)C[C@H](NC(=O)[C@H]1O[C@@H]1C(=O)O)C(=O)NCCCCN=C(N)N (relative stereo) [E64, trans-epoxysuccinyl-L-leucylamido-(4-Guanidino) butane] | only Z-LVG-CHN2 inhibited streptococcal growth | only Z-LVG-CHN2 inhibited streptococcal growth | efficiently blocked; also recorded: irreversibly block the proteolytic activity of SpeB | inhibition of the activity of IdeS (IgG cleavage) (IdeS [1]; E64 (40 μM)): had no effect on the enzyme; also recorded: not affected; inhibition of the cleavage of IgG (31 kDa product) [5]: did not inhibit the cleavage of IgG
4 | Z-LVG-CHN2: peptide derivate based on the inhibitory reactive site of cystatin C, carrying a diazomethyl ketone group ({code Z}-Leu-Val-Gly-CHN2; reading uncertain) | inhibited streptococcal growth | inhibited streptococcal growth | irreversibly inhibit; also recorded: irreversibly block the proteolytic activity of SpeB | inhibition of the activity of IdeS (IgG cleavage) (IdeS [1]; Z-LVG-CHN2 at 0.4 mg/ml in 1% DMSO): efficiently inhibited the activity of IdeS; also recorded: is inhibited; inhibition of papain (papain): irreversibly inhibit
